Measurements reported in US11078216B2, “Bisaryl amides as NRF2 activators” (GLAXOSMITHKLINE INTELLECTUAL PROPERTY DEVELOPMENT LIMITED, priority 2016, dated 2021).

Tested on: NRF2 (NQO1 activity as marker for NRF2 activation), BEAS-2B cells
Assay: BEAS-2B NQO1 MTT Assay
Assay type: cell-based
Conditions: Homo sapiens, EC50 of NQO1 specific activity induction, 48 hours incubation, read-out: EC50
How it was run: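 As a marker of NRF2 activation, NQO1 specific activity was read from the rate of absorbance change at 570 nm in MTT cocktail over 30 minutes. Lysates came from BEAS-2B cells treated for 48 hours at 37° C, and EC50 was derived by 3-parameter fitting.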

SMILES | EC50 [nM]
CC[C@@H]1CN(Cc2cc([C@@H](c3ccc4c(nnn4CC)c3C)C(C)(C)C(=O)N[C@@H]3CCOC3)ccc2C)S(=O)(=O)c2cccnc2O1 [Example 114, (S)-3-(3-(((R)-4-Ethyl-1,1-dioxido-3,4-dihydro-2H-pyrido[2,3-b][1,4,5]oxathiazepin-2-yl)methyl)-4-methylphenyl)-3-(1-ethyl-4-methyl-1H-benzo[d][1,2,3]triazol-5-yl)-2,2-dimethyl-N-((R)-tetrahydrofuran-3-yl)propanamide] | 10 to 100
CC[C@@H]1CN(Cc2cc([C@@H](c3ccc4c(nnn4CC)c3C)C(C)(C)C(=O)Nc3cnc(SC)nc3)ccc2C)S(=O)(=O)c2cccnc2O1 [Example 115, (S)-3-(3-(((R)-4-Ethyl-1,1-dioxido-3,4-dihydro-2H-pyrido[2,3-b][1,4,5]oxathiazepin-2-yl)methyl)-4-methylphenyl)-3-(1-ethyl-4-methyl-1H-benzo[d][1,2,3]triazol-5-yl)-2,2-dimethyl-N-(2-(methylthio)pyrimidin-5-yl)propanamide] | 1 to 10
CC[C@@H]1CN(Cc2cc([C@H](c3ccc4c(nnn4CC)c3C)C(C)(C)C(=O)Nc3cccnc3)ccc2C)S(=O)(=O)c2cccnc2O1 [Example 116, (R)-3-(3-(((R)-4-Ethyl-1,1-dioxido-3,4-dihydro-2H-pyrido[2,3-b][1,4,5]oxathiazepin-2-yl)methyl)-4-methylphenyl)-3-(1-ethyl-4-methyl-1H-benzo[d][1,2,3]triazol-5-yl)-2,2-dimethyl-N-(pyridin-3-yl)propanamide] | 10 to 100
CC[C@@H]1CN(Cc2cc([C@@H](c3ccc4c(nnn4CC)c3C)C(C)(C)C(=O)Nc3cncnc3)ccc2C)S(=O)(=O)c2cccnc2O1 [Example 117, (S)-3-(3-(((R)-4-Ethyl-1,1-dioxido-3,4-dihydro-2H-pyrido[2,3-b][1,4,5]oxathiazepin-2-yl)methyl)-4-methylphenyl)-3-(1-ethyl-4-methyl-1H-benzo[d][1,2,3]triazol-5-yl)-2,2-dimethyl-N-(pyrimidin-5-yl)propanamide] | 1 to 10
CC[C@@H]1CN(Cc2cc([C@H](CC(=O)Nc3cnccn3)c3ccc4c(nnn4CC)c3C)ccc2C)S(=O)(=O)c2cccnc2O1 [Example 118, (S)-3-(3-(((R)-4-Ethyl-1,1-dioxido-3,4-dihydro-2H-pyrido[2,3-b][1,4,5]oxathiazepin-2-yl)methyl)-4-methylphenyl)-3-(1-ethyl-4-methyl-1H-benzo[d][1,2,3]triazol-5-yl)-N-(pyrazin-2-yl)propanamide] | 10 to 100
CC[C@H]1Cc2ncccc2S(=O)(=O)N(Cc2cc([C@@H](c3ccc4c(nnn4CC)c3C)C(C)(C)C(=O)Nc3cccnc3)ccc2C)C1 [Example 119, (S)-3-(3-(((S)-4-Ethyl-1,1-dioxido-4,5-dihydropyrido[2,3-f][1,2]thiazepin-2(3H)-yl)methyl)-4-methylphenyl)-3-(1-ethyl-4-methyl-1H-benzo[d][1,2,3]triazol-5-yl)-2,2-dimethyl-N-(pyridin-3-yl)propanamide] | 1 to 10
CC[C@@H]1CN(Cc2cc([C@@H](c3ccc4c(nnn4CC)c3C)C(C)(C)C(=O)Nc3cccnc3)ccc2C)S(=O)(=O)c2cccnc2O1 [Example 120, (S)-3-(3-(((R)-4-Ethyl-1,1-dioxido-3,4-dihydro-2H-pyrido[2,3-b][1,4,5]oxathiazepin-2-yl)methyl)-4-methylphenyl)-3-(1-ethyl-4-methyl-1H-benzo[d][1,2,3]triazol-5-yl)-2,2-dimethyl-N-(pyridin-3-yl)propanamide] | 1 to 10
CC[C@@H]1CN(Cc2cc([C@H](CC(=O)Nc3ncccn3)c3ccc4c(nnn4CC)c3C)ccc2C)S(=O)(=O)c2cccnc2O1 [Example 121, (S)-3-(3-(((R)-4-Ethyl-1,1-dioxido-3,4-dihydro-2H-pyrido[2,3-b][1,4,5]oxathiazepin-2-yl)methyl)-4-methylphenyl)-3-(1-ethyl-4-methyl-1H-benzo[d][1,2,3]triazol-5-yl)-N-(pyrimidin-2-yl)propanamide] | 100 to 1000
CC[C@@H]1CN(Cc2cc([C@H](CC(=O)Nc3cccnn3)c3ccc4c(nnn4CC)c3C)ccc2C)S(=O)(=O)c2cccnc2O1 [Example 122, (S)-3-(3-(((R)-4-Ethyl-1,1-dioxido-3,4-dihydro-2H-pyrido[2,3-b][1,4,5]oxathiazepin-2-yl)methyl)-4-methylphenyl)-3-(1-ethyl-4-methyl-1H-benzo[d][1,2,3]triazol-5-yl)-N-(pyridazin-3-yl)propanamide] | 100 to 1000
CC[C@@H]1CN(Cc2cc([C@H](CC(=O)Nc3cnc(OC)nc3)c3ccc4c(nnn4CC)c3C)ccc2C)S(=O)(=O)c2cccnc2O1 [Example 123, (S)-3-(3-(((R)-4-Ethyl-1,1-dioxido-3,4-dihydro-2H-pyrido[2,3-b][1,4,5]oxathiazepin-2-yl)methyl)-4-methylphenyl)-3-(1-ethyl-4-methyl-1H-benzo[d][1,2,3]triazol-5-yl)-N-(2-methoxypyrimidin-5-yl)propanamide] | 10 to 100
CCOCCOc1ncc(NC(=O)C(C)(C)[C@@H](c2ccc(C)c(CN3C[C@@H](CC)Oc4ncccc4S3(=O)=O)c2)c2ccc3c(nnn3CC)c2C)cn1 [Example 124, (S)—N-(2-(2-Ethoxyethoxy)pyrimidin-5-yl)-3-(3-(((R)-4-ethyl-1,1-dioxido-3,4-dihydro-2H-pyrido[2,3-b][1,4,5]oxathiazepin-2-yl)methyl)-4-methylphenyl)-3-(1-ethyl-4-methyl-1H-benzo[d][1,2,3]triazol-5-yl)-2,2-dimethylpropanamide] | 1 to 10
CC[C@@H]1CN(Cc2cc([C@H](CC(=O)Nc3cnc(N4CCCCC4)nc3)c3ccc4c(nnn4CC)c3C)ccc2C)S(=O)(=O)c2cccnc2O1 [Example 125, (S)-3-(3-(((R)-4-Ethyl-1,1-dioxido-3,4-dihydro-2H-pyrido[2,3-b][1,4,5]oxathiazepin-2-yl)methyl)-4-methylphenyl)-3-(1-ethyl-4-methyl-1H-benzo[d][1,2,3]triazol-5-yl)-N-(2-(piperidin-1-yl)pyrimidin-5-yl)propanamide] | 10 to 100
CC[C@@H]1CN(Cc2cc([C@H](CC(=O)Nc3cnc(NC)nc3)c3ccc4c(nnn4CC)c3C)ccc2C)S(=O)(=O)c2cccnc2O1 [Example 126, (S)-3-(3-(((R)-4-Ethyl-1,1-dioxido-3,4-dihydro-2H-pyrido[2,3-b][1,4,5]oxathiazepin-2-yl)methyl)-4-methylphenyl)-3-(1-ethyl-4-methyl-1H-benzo[d][1,2,3]triazol-5-yl)-N-(2-(methylamino)pyrimidin-5-yl)propanamide] | 100 to 1000
CC[C@@H]1CN(Cc2cc([C@H](CC(=O)Nc3cnc(NC(CO)CO)nc3)c3ccc4c(nnn4CC)c3C)ccc2C)S(=O)(=O)c2cccnc2O1 [Example 127, (S)—N-(2-((1,3-Dihydroxypropan-2-yl)amino)pyrimidin-5-yl)-3-(3-(((R)-4-ethyl-1,1-dioxido-3,4-dihydro-2H-pyrido[2,3-b][1,4,5]oxathiazepin-2-yl)methyl)-4-methylphenyl)-3-(1-ethyl-4-methyl-1H-benzo[d][1,2,3]triazol-5-yl)propanamide] | 1000 to 10000
CC[C@@H]1CN(Cc2cc([C@@H](c3ccc4c(nnn4CC)c3C)C(C)(C)C(=O)Nc3cnc(NC(CO)CO)nc3)ccc2C)S(=O)(=O)c2cccnc2O1 [Example 128, (S)-N-(2-((1,3-Dihydroxypropan-2-yl)amino)pyrimidin-5-yl)-3-(3-(((R)-4-ethyl-1,1-dioxido-3,4-dihydro-2H-pyrido[2,3-b][1,4,5]oxathiazepin-2-yl)methyl)-4-methylphenyl)-3-(1-ethyl-4-methyl-1H-benzo[d][1,2,3]triazol-5-yl)-2,2-dimethylpropanamide] | 100 to 1000
CC[C@@H]1CN(Cc2cc([C@@H](c3ccc4c(nnn4CC)c3C)C(C)(C)C(=O)Nc3cnc(OCC(N)CO)nc3)ccc2C)S(=O)(=O)c2cccnc2O1 (stereo partly drawn) [Example 129, (3S)-N-(2-(2-Amino-3-hydroxypropoxy)pyri-midin-5-yl)-3-(3-(((R)-4-ethyl-1,1-dioxido-3,4-dihydro-2H-pyrido[2,3-b][1,4,5]oxathiazepin-2-yl)methyl)-4-methylphenyl)-3-(1-ethyl-4-methyl-1H-benzo[d][1,2,3]triazol-5-yl)-2,2-dimethylpropanamide] | 100 to 1000
CC[C@@H]1CN(Cc2cc([C@@H](c3ccc4c(nnn4CC)c3C)C(C)(C)C(=O)Nc3cnc(N(C)C)nc3)ccc2C)S(=O)(=O)c2cccnc2O1 [Example 130, (S)-N-(2-(Dimethylamino)pyri-midin-5-yl)-3-(3-(((R)-4-ethyl-1,1-dioxido-3,4-dihydro-2H-pyrido[2,3-b][1,4,5]oxathiazepin-2-yl)methyl)-4-methylphenyl)-3-(1-ethyl-4-methyl-1H-benzo[d][1,2,3]triazol-5-yl)-2,2-dimethylpropanamide] | 1 to 10
CC[C@@H]1CN(Cc2cc([C@@H](c3ccc4c(nnn4CC)c3C)C(C)(C)C(=O)Nc3cnc(S(C)(=O)=O)nc3)ccc2C)S(=O)(=O)c2cccnc2O1 [Example 131, (S)-3-(3-(((R)-4-Ethyl-1,1-dioxido-3,4-dihydro-2H-pyrido[2,3-b][1,4,5]oxathiazepin-2-yl)methyl)-4-methylphenyl)-3-(1-ethyl-4-methyl-1H-benzo[d][1,2,3]triazol-5-yl)-2,2-dimethyl-N-(2-(methylsulfonyl)pyrimidin-5-yl)propanamide] | 10 to 100
CC[C@@H]1CN(Cc2cc([C@@H](c3ccc4c(nnn4CC)c3C)C(C)(C)NC(C)=O)ccc2C)S(=O)(=O)c2ccccc2O1 [Example 132, N—((S)-1-(3-(((R)-4-Ethyl-1,1-dioxido-3,4-dihydro-2H-benzo[b][1,4,5]oxathiazepin-2-yl)methyl)-4-methylphenyl)-1-(1-ethyl-4-methyl-1H-benzo[d][1,2,3]triazol-5-yl)-2-methylpropan-2-yl)acetamide] | 10 to 100
